Results as given in patent US20250296960A1, “PEPTIDE COMPOSITIONS AND METHODS OF USE THEREOF” (priority 2022, published 2025).
Numbered stars: 1 amine (or outer) side, 2 acyl side, 3 side chain; on linkers, the order of the positions; unused ones are H or OH. Square brackets hold non-standard residues; d marks the D form. Side chains are listed from the residue outwards. Ends that are not written are not given here. Peptide text beside a SMILES is read from it. * marks the point of attachment. Biotin = O=C1N[C@H]2[C@H](CS[C@H]2CCCCC(=O)*)N1; C18 diacid = O=C(O)CCCCCCCCCCCCCCCCC(=O)*; γGlu = O=C(O)[C@H](CCC(=O)[*:2])N[*:1]; αMeR = C[C@](N)(CCCNC(=N)N)C(=O)O; AEEA = NCCOCCOCC(=O)O; Aib = CC(C)(N)C(=O)O

T1: human GIPR (Homo sapiens, UniProt P48546)
T1 construct: host or cells: CHO-K1
T1 sequence (P48546 22-466): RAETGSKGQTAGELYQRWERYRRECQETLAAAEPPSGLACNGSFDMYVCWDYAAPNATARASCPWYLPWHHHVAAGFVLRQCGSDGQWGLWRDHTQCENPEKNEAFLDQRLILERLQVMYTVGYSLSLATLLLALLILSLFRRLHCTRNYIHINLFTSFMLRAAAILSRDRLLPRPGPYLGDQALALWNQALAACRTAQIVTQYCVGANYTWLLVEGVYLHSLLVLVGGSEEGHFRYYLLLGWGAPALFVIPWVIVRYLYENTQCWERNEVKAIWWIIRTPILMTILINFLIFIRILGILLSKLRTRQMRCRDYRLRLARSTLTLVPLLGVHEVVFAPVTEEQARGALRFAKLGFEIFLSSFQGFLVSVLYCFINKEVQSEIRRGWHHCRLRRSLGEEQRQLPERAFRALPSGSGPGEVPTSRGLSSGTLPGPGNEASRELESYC

T2: human glucose-dependent insulinotropic polypeptide receptor (GIPR), expressed on CHO-K1 cells (human, UniProt P48546 22-466)
T2 sequence (looked up): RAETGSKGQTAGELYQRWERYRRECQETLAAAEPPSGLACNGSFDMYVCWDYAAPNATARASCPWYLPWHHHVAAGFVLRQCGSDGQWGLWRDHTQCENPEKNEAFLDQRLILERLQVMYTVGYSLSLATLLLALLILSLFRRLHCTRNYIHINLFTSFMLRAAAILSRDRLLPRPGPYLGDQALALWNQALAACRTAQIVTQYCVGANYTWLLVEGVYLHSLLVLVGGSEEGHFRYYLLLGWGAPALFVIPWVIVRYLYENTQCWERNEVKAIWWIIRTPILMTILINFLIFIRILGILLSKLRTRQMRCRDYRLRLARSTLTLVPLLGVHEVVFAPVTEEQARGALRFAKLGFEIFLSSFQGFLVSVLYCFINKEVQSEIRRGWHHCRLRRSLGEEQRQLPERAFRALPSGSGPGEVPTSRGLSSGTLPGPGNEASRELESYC

B1: SEQ ID NO. 110 (peptide)
peptide: Y[Aib]QGTFTSDYSK([AEEA-AEEA-γGlu-C20])YLDYMMQ[αMeR]DFVKWLLEGGPSSGAPPPS-NH2
modifications: not fully specified (residue 24); printed as YAibQGT FTSDY SK**YLD YMMQαR DFVB*W LLEGG PSSGA PPPS

How the values were obtained:
human GLP-1R = molecular target: T3, human GLP-1R (Homo sapiens, UniProt P43220); assay: cAMP assay (HitHunter cAMP) in GLP-1R-expressing CHO-K1 cells (GLP-1R+ cells); type: cell-based; settings: Table 31
T3 construct: host or cells: CHO-K1
T3 sequence (P43220 24-463): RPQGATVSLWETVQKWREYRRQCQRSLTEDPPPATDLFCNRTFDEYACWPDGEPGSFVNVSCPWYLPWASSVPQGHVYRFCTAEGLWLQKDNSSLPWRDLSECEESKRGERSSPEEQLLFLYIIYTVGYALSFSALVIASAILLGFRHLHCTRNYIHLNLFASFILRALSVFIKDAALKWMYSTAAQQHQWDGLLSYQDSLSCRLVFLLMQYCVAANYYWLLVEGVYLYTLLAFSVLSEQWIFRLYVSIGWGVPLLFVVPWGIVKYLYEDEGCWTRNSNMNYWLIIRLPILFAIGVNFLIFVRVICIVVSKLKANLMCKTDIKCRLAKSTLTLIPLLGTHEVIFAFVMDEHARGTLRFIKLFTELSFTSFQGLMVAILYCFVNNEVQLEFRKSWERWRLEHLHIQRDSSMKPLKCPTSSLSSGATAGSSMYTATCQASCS
In short: (§1)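 Luminescent cAMP read-out: after 30 min peptide stimulation at 37 °C in cAMP assay buffer, receptor-expressing CHO-K1 cells (seeded 7×10^3/well the night before) received antibody and detection reagents for 1 h, then Solution A for 3 h, at room temperature in the dark.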

human GIPR = molecular target: T1, human GIPR; assay: cAMP assay (HitHunter cAMP) in GIPR-expressing CHO-K1 cells (GIPR+ cells); type: cell-based; settings: Table 31
In short: as §1

[1] = In vitro enzymatic stability against FaSSIF/P (pancreatin in FaSSIF, pH 6.5); type: in vitro ADME; settings: simulated gi fluid, pH 6.5, Half-life (min)
Procedure: This study was conducted to determine the enzymatic stability of SEQ ID NOs. 77, 86, 87, 89, 90, and 91 after biotinylation in artificial intestinal environment. The test samples were prepared by mixing stock solutions of peptide and pancreatin dissolved in FaSSIF solution (pH 6.5) in a weight ratio of 25:1. The test samples were incubated at 37° C. for 120 min. The sampling from test samples was proceeded at the predetermined time points (10, 30, 60, and 120 min) and stopped by 10% TFA solution.
Analytical HPLC was performed to determine the remaining amount on an ACQUITY Premier system (Waters, USA) with an ACQUITY CSH C18 column (Waters, USA) at 35° C. using 0.1% TFA in water and acetonitrile. The remaining amount was determined as a percentage of the peak area at the sampling time point relative to the peak area of the initial sample.
For the stability against FaSSIF/P, the test samples were prepared by mixing stock solutions of peptide and pancreatin dissolved in FaSSIF solution (pH 6.5) in a weight ratio of 19:1. The test samples were incubated at 37° C. for 120 min. The sampling from test samples was proceeded at the predetermined time points (10, 30, 60, and 120 min) and stopped by 10% TFA solution.

human GCGR = molecular target: T4, human GCGR (Homo sapiens, UniProt P47871); assay: cAMP assay (HitHunter cAMP) in GCGR-expressing CHO-K1 cells (GCGR+ cells); type: cell-based; settings: Table 31
T4 construct: host or cells: CHO-K1
T4 sequence (P47871 26-477): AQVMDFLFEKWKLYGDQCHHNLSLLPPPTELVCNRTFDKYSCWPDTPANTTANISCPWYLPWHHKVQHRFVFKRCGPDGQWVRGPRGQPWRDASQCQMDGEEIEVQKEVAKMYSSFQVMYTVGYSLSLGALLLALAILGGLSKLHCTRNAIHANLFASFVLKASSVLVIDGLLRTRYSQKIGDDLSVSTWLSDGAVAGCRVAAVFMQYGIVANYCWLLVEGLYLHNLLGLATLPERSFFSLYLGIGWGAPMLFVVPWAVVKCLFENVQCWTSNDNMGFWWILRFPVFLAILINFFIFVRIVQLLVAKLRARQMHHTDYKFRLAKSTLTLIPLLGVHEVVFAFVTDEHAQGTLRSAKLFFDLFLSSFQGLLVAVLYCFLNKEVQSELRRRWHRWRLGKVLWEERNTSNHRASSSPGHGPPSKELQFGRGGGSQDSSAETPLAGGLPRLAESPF
In short: as §1

[2] = Body weight loss in high fat diet (HFD) mice, 2 weeks; type: in vivo; settings: 20 nmol/kg s.c. Q2D
Procedure: This study was conducted to confirm the body weight loss effect and select the peptides to be evaluated in high fat diet (HFD) treated mouse, which is widely used as experimental animal model in obesity and diabetes studies. SEQ ID NOs. The peptides were delivered at 0.02% PS80 in PBS and dosing volume was 10 mL/kg. Body weight changes, blood glucose, and food intake were monitored Q2D. Animals were fasted at least 4 hours prior to blood glucose measurement.

[3] = Intestinal absorption / PK after intraduodenal administration of oral formulation in rats, serum LC-MS/MS; settings: rat, in vivo
Procedure: This study was conducted to evaluate the intestinal absorption of peptides following enteral administration of oral pharmaceutical formulations. The pharmaceutical formulation was administered in a form of suspensions by intraduodenal (ID) injection in rats. SEQ ID_87, 89 and 90 was accurately weighed and dissolved in 10 mM PBS containing polysorbate 80 (pH 7.4, vehicle I). The mixture was vortexed for 5 min to get a clear solution. Then, 2.5 mL of vehicle was added to the mixture and vortexed for 30 min to get homogenous opaque suspension. The composition of Vehicle II was sodium chenodeoxycholate, and propyl gallate in polysorbate 80 in PBS. The animals were not fasted prior to dosing. 0.2˜ 0.4 mL of whole blood was taken from vein at each time point (0, 0.167, 0.5, 1, 2, 4, 8, 24, and 48 hrs after IV or ID administration). The collected whole blood was incubated at room temperature for 20 min and tubes were centrifugated at 13,000 rpm for 10 min at 4° C. The resulting serum 0.1˜ 0.2 mL was transferred into the tube and stored at −70° C. until analysis. The concentrations of peptides in serum were determined by LC-MS/MS analysis. PK parameters were analyzed by non-compartmental analysis using Phoenix WinNonlin 5.0.1. software (Pharsight Corporation, Mountain View, CA, USA).

[4] = molecular target: T5, human GLP-1 receptor (GLP-1R), expressed on CHO-K1 cells (human, UniProt P43220 24-463); assay: cell-based or functional assay
[5] = molecular target: human glucagon receptor (GCGR), expressed on CHO-K1 cells (human, UniProt P47871 26-477); assay: cell-based or functional assay
human glucagon receptor (GCGR), expressed on CHO-K1 cells, sequence (P47871 26-477): as above

[6] = molecular target: T2, human glucose-dependent insulinotropic …; assay: cell-based or functional assay
[7] = molecular target: T5, human GLP-1 receptor (GLP-1R), …; assay: cell-based or functional assay; remark: listed apart in the source
[8] = molecular target: T2, human glucose-dependent insulinotropic …; assay: cell-based or functional assay; remark: listed apart in the source

Molecule | Ratio vs. GLP-1R, GLP-1R (human GLP-1R) | Relative % to native ligand, GLP-1R (human GLP-1R) [%] | Ratio vs. GLP-1R, GIPR (human GIPR) | Relative % to native ligand, GIPR (human GIPR) [%] | half-life [1] [min] | Ratio vs. GLP-1R, GCGR (human GCGR) | Relative % to native ligand, GCGR (human GCGR) [%] | body weight loss effect compared to SEQ ID NO. 77, in words [2] | AUC(0-inf) [3] [µg·h/mL] | Cmax [3] [µg/mL] | half-life [3] [min] | time at which Cmax was reached [3] [h] | Ratio vs. GLP-1R [4] | Relative % to native ligand [4] [%] | Ratio vs. GLP-1R [5] | Relative % to native ligand [5] [%] | Ratio vs. GLP-1R [6] | Relative % to native ligand [6] [%] | EC50 (nM), cAMP assay [7] [nM] | EC50 (nM), cAMP assay [8] [nM]
CSCC[C@H](NC(=O)[C@H](CCCCNC(=O)CCCC[C@@H]1SC[C@@H]2NC(=O)N[C@@H]21)NC(=O)[C@H](CC(=O)O)NC(=O)[C@H](CC(C)C)NC(=O)[C@H](CC(C)C)NC(=O)[C@H](CCCCNC(=O)COCCOCCNC(=O)COCCOCCNC(=O)CC[C@H](NC(=O)CCCCCCCCCCCCCCCCC(=O)O)C(=O)O)NC(=O)[C@H](CO)NC(=O)[C@H](Cc1ccc(O)cc1)NC(=O)[C@H](CC(=O)O)NC(=O)[C@H](CO)NC(=O)[C@@H](NC(=O)[C@H](Cc1ccccc1)NC(=O)[C@@H](NC(=O)CNC(=O)[C@H](CCC(N)=O)NC(=O)C(C)(C)NC(=O)[C@@H](N)Cc1ccc(O)cc1)[C@@H](C)O)[C@@H](C)O)C(=O)N[C@@H](CCSC)C(=O)N[C@@H](CCC(N)=O)C(=O)N[C@@H](CCCNC(=N)N)C(=O)N[C@@H](CC(=O)O)C(=O)N[C@@H](Cc1ccccc1)C(=O)N[C@H](C(=O)N[C@@H](CCC(N)=O)C(=O)N[C@@H](Cc1c[nH]c2ccccc12)C(=O)N[C@@H](CC(C)C)C(=O)N[C@@H](CC(C)C)C(=O)N[C@@H](CCC(=O)O)C(=O)NCC(=O)NCC(=O)N1CCC[C@H]1C(=O)N[C@@H](CO)C(=O)N[C@@H](CO)C(=O)NCC(=O)N[C@@H](C)C(=O)N1CCC[C@H]1C(=O)N1CCC[C@H]1C(=O)N1CCC[C@H]1C(=O)N[C@@H](CO)C(N)=O)C(C)C [compound 86] (H-Y[Aib]QGTFTSDYSK([AEEA-AEEA-γGlu-C18 diacid])LLDK(Biotin)MMQRDFVQWLLEGGPSSGAPPPS-NH2; N-terminus and C-terminus assumed) | 100 | 90 | 639 | 575 | 25.4 | 157 | 142 | inferior |  |  |  |  |  |  |  |  |  |  |  | 
CSCC[C@H](NC(=O)[C@H](CCCCNC(=O)CCCC[C@@H]1SC[C@@H]2NC(=O)N[C@@H]21)NC(=O)[C@H](Cc1ccc(O)cc1)NC(=O)[C@H](CC(=O)O)NC(=O)[C@H](CC(C)C)NC(=O)[C@H](CC(C)C)NC(=O)[C@H](CCCCNC(=O)COCCOCCNC(=O)COCCOCCNC(=O)CC[C@H](NC(=O)CCCCCCCCCCCCCCCCC(=O)O)C(=O)O)NC(=O)[C@H](CO)NC(=O)[C@H](Cc1ccc(O)cc1)NC(=O)[C@H](CC(=O)O)NC(=O)[C@H](CO)NC(=O)[C@@H](NC(=O)[C@H](Cc1ccccc1)NC(=O)[C@@H](NC(=O)CNC(=O)[C@H](CCC(N)=O)NC(=O)C(C)(C)NC(=O)[C@@H](N)Cc1ccc(O)cc1)[C@@H](C)O)[C@@H](C)O)C(=O)N[C@@H](CCC(N)=O)C(=O)N[C@@H](CCCNC(=N)N)C(=O)N[C@@H](CC(=O)O)C(=O)N[C@@H](Cc1ccccc1)C(=O)N[C@H](C(=O)N[C@@H](CCC(N)=O)C(=O)N[C@@H](Cc1c[nH]c2ccccc12)C(=O)N[C@@H](CC(C)C)C(=O)N[C@@H](CC(C)C)C(=O)N[C@@H](CCC(=O)O)C(=O)NCC(=O)NCC(=O)N1CCC[C@H]1C(=O)N[C@@H](CO)C(=O)N[C@@H](CO)C(=O)NCC(=O)N[C@@H](C)C(=O)N1CCC[C@H]1C(=O)N1CCC[C@H]1C(=O)N1CCC[C@H]1C(=O)N[C@@H](CO)C(N)=O)C(C)C [compound 87] (H-Y[Aib]QGTFTSDYSK([AEEA-AEEA-γGlu-C18 diacid])LLDYK(Biotin)MQRDFVQWLLEGGPSSGAPPPS-NH2; N-terminus and C-terminus assumed) | 100 | 110 | 281 | 308 | 16.4 | 60 | 66 | inferior | 1.86 | 0.29 | 370 | 0.25 |  |  |  |  |  |  |  | 
B1 |  |  |  |  |  |  |  |  |  |  |  |  | 100 | 39 | 29 | 11 | 272 | 105 |  | 
H[Aib]QGTFTSDYSKYLDYMMARDFVQWLIEGGPSSGAPPPSC [Peptide No. 5 (with C-terminal cysteine)] |  |  |  |  |  |  |  |  |  |  |  |  |  |  |  |  |  |  | 0.0605 | 13.2
